28 compounds from patent publication US11332459B2 (TEIJIN PHARMA LIMITED, priority 2017, dated 2022) can be followed below.

pIC50: −log10 of the molar value. Counter-ions that a name gives are not always drawn.

In the test the target is T1, human TRPC6 (Homo sapiens, UniProt Q9Y210).
T1 construct: expressed in transfected cells
T1 sequence (Q9Y210 1-931): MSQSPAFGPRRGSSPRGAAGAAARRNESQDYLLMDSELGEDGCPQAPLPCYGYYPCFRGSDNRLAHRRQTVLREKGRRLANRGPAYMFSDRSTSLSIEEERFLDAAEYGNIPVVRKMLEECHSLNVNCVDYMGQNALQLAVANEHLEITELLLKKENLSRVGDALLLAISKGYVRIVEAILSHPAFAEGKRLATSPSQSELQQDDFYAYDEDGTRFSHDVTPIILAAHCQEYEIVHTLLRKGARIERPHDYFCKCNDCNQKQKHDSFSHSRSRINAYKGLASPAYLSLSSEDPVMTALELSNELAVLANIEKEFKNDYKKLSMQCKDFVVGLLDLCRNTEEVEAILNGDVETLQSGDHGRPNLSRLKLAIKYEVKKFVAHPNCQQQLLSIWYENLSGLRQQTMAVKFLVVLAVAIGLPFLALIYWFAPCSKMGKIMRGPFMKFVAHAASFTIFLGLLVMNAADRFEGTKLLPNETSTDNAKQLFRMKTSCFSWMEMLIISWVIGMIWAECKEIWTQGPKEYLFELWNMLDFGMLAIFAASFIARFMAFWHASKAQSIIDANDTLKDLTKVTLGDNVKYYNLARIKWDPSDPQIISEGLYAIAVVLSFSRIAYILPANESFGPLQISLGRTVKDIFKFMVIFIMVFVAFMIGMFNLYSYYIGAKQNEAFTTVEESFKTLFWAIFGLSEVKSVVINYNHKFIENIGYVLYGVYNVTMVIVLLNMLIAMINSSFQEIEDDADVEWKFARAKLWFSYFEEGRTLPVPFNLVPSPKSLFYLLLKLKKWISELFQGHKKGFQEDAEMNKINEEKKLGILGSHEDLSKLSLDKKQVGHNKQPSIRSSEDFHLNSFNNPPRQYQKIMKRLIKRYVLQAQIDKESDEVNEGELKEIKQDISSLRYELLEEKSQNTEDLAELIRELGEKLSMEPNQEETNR
The experiment in a line: TRPC6 calcium flux assay (FLIPR, OAG-stimulated calcium influx). It is filed as cell-based. To be noted: HEK293 cells stably transfected with human TRPC6, read-out: hTRPC6 Potency. The method, boiled down: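 HEK293 cells stably expressing human TRPC6, loaded with calcium dye 90–120 min at RT, then given compound for 25 min before OAG (50 uM final, 0.5% DMSO) in HEPES buffer pH 7.2 with 2 mM CaCl2. Background-subtracted FLIPR peak over 180 s normalized to OAG vs buffer; IC50 from dose plot.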
(Calcium flux is commonly read through the fluorescence of an indicator in the cells.)
Turning to `CN(CC(F)(F)F)C(=O)Cn1c(N2CC[C@@H](N)C2)nc2ccc(F)cc21` [Example 490, (R)-2-(2-(3-aminopyrrolidin-1-yl)-6-fluoro-1H-benzo[d]imidazol-1-yl)-N-methyl-N-(2,2,2-trifluoroethyl)acetamide], the pIC50 is below 5.43.

Consider `N#Cc1cc(F)cc2c1nc(N1CCC(F)(F)[C@H](N)C1)n2Cc1ncc(Cl)cn1` [Example 151, (R)-2-(3-amino-4,4-difluoropiperidin-1-yl)-1-((5-chloropyrimidin-2-yl)methyl)-6-fluoro-1H-benzo[d]imidazole-4-carbonitrile], for which the pIC50 was 8.22.

For the compound `NC(=O)C1CCCN(C(=O)Cn2c(N3CC[C@@H](F)[C@H](N)C3)nc3cc(F)c(F)cc32)C1` (mixture of isomers) [Example 530, 1-(2-(2-((3R,4R)-3-amino-4-fluoropiperidin-1-yl)-5,6-difluoro-1H-benzo[d]imidazol-1-yl)acetyl)piperidine-3-carboxamide], the pIC50 was below 5.43.

Regarding `N#Cc1ccc(Cn2c(N3CC[C@@H](F)[C@H](N)C3)nc3ccc(C(F)(F)F)nc32)nc1` [Example 453, 6-((2-((3R,4R)-3-amino-4-fluoropiperidin-1-yl)-5-(trifluoromethyl)-3H-imidazo[4,5-b]pyridin-3-yl)methyl)nicotinonitrile], the pIC50 is 8.82.

Take `N[C@@H]1CN(c2nc3ccc(F)cc3n2Cc2nc(C(F)(F)F)no2)CC[C@H]1F` [Example 569, (3R,4R)-4-fluoro-1-(6-fluoro-1-((3-(trifluoromethyl)-1,2,4-oxadiazol-5-yl)methyl)-1H-benzo[d]imidazol-2-yl)piperidin-3-amine]: the pIC50 was 7.11.

Regarding `CS(=O)(=O)c1ccc(Cn2c(N3CC[C@@H](F)[C@H](N)C3)nc3cc(F)cc(F)c32)nc1` [Example 595, (3R,4R)-1-(5,7-difluoro-1-((5-(methylsulfonyl)pyridin-2-yl)methyl)-1H-benzo[d]imidazol-2-yl)-4-fluoropiperidin-3-amine], the pIC50 is below 5.43.

Regarding `C[C@@H]1CCN(c2nc3ccccc3n2Cc2ccc(C#N)cc2)C[C@H]1N` [Example 181, 4-((2-((3S,4R)-3-amino-4-methylpiperidin-1-yl)-1H-benzo[d]imidazol-1-yl)methyl)benzonitrile 2,2,2-trifluoroacetate], the pIC50 is 9.04.

As to `N#Cc1ccc(Cn2c(N3CC[C@@H](F)[C@H](N)C3)nc3ccc(Cl)cc32)cc1` [Example 420, 4-((2-((3R,4R)-3-amino-4-fluoropiperidin-1-yl)-6-chloro-1H-benzo[d]imidazol-1-yl)methyl)benzonitrile hydrochloride], the pIC50 was 9.22.

As to `N#Cc1ccc(Cn2c(N3CCC[C@@]4(CCCN4)C3)nc3ccccc32)nc1` [Example 136, 6-((2-((5S)-1,7-diazaspiro[4.5]decan-7-yl)-1H-benzimidazol-1-yl)methyl)-3-pyridinecarbonitrile], the pIC50 was 7.86.

Consider `N#Cc1ccc(Cn2c(N3CC[C@@H](F)[C@H](N)C3)nc3ccccc32)cc1` [Example 173, 4-((2-((3R,4R)-3-amino-4-fluoropiperidin-1-yl)-1H-benzo[d]imidazol-1-yl)methyl)benzonitrile], for which the pIC50 is 8.86.

`CN1CC[C@H](n2c(N3CC[C@@H](F)[C@H](N)C3)nc3cc(F)c(F)cc32)C1=O` [Example 245, (S)-3-(2-((3R,4R)-3-amino-4-fluoropiperidin-1-yl)-5,6-difluoro-1H-benzo[d]imidazol-1-yl)-1-methylpyrrolidin-2-one]: the pIC50 was 7.20.

For the compound `Cc1cccc2c1nc(N1CC[C@@H](F)[C@H](N)C1)n2Cc1ccc(C#N)cn1` [Example 121, 6-((2-((3R,4R)-3-amino-4-fluoro-1-piperidinyl)-4-methyl-1H-benzimidazol-1-yl)methyl)-3-pyridinecarbonitrile], the pIC50 is 8.25.

`N#Cc1ccc(Cn2c(N3CC[C@H](N)C3)nc3ccccc32)cc1` [Example 166, (S)-4-((2-(3-aminopyrrolidin-1-yl)-1H-benzo[d]imidazol-1-yl)methyl)benzonitrile]: the pIC50 is 6.25.

Regarding `N#Cc1ccc(Cn2c(N3C[C@H]4CC[C@H](N)[C@H]4C3)nc3ccccc32)nc1` [Example 78, 6-((2-((3aR,4S,6aS)-4-aminohexahydrocyclopenta[c]pyrrol-2(1H)-yl)-1H-benzo[d]imidazol-1-yl)methyl)nicotinonitrile hydrochloride], the pIC50 was 7.15.

For `CN(C(=O)Cn1c(N2CC[C@@H](F)[C@H](N)C2)nc2ccc(F)cc21)[C@@H]1CCOC1` [Example 665, 2-(2-((3R,4R)-3-amino-4-fluoropiperidin-1-yl)-6-fluoro-1H-benzo[d]imidazol-1-yl)-N-methyl-N-((R)-tetrahydrofuran-3-yl)acetamide], the pIC50 is 6.23.

As to `CNC(=O)C1CN(C(=O)Cn2c(N3CC[C@@H](F)[C@H](N)C3)nc3cc(F)c(F)cc32)CCO1` (stereo partly drawn) [Example 644, 4-(2-(2-((3R,4R)-3-amino-4-fluoropiperidin-1-yl)-5,6-difluoro-1H-benzo[d]imidazol-1-yl)acetyl)-N-methylmorpholine-2-carboxamide], the pIC50 is 5.72.

Turning to `CN[C@H]1CCCN(c2nc3ccccc3n2Cc2ccc(C#N)cn2)C1` [Example 116, 6-((2-((3S)-3-(methylamino)-1-piperidinyl)-1H-benzimidazol-1-yl)methyl)-3-pyridinecarbonitrile], the pIC50 was 8.11.

For `N#Cc1ccc2nc(N3CC[C@@H](F)[C@H](N)C3)n(Cc3ncc(Br)cn3)c2c1` [Example 200, 2-((3R,4R)-3-amino-4-fluoropiperidin-1-yl)-1-((5-bromopyrimidin-2-yl)methyl)-1H-benzo[d]imidazole-6-carbonitrile], the pIC50 was 8.66.

Consider `N[C@@H]1CN(c2nc3cc(F)c(F)cc3n2Cc2cccc(C(F)(F)F)c2)CC[C@H]1F` [Example 365, (3R,4R)-1-(5,6-difluoro-1-(3-(trifluoromethyl)benzyl)-1H-benzimidazol-2-yl)-4-fluoro-3-piperidinamine], for which the pIC50 was 5.53.

As to `CN(CC(F)F)C(=O)Cn1c(N2CC[C@@H](F)[C@H](N)C2)nc2cc(F)c(F)cc21` [Example 601, 2-(2-((3R,4R)-3-amino-4-fluoropiperidin-1-yl)-5,6-difluoro-1H-benzo[d]imidazol-1-yl)-N-(2,2-difluoroethyl)-N-methylacetamide], the pIC50 was 8.25.

Take `N#Cc1ccc(Cn2c(N3CC[C@@H](F)[C@H](N)C3)nc3cc(C(F)(F)F)ccc32)nc1` [Example 15, 6-((2-((3R,4R)-3-amino-4-fluoropiperidin-1-yl)-5-(trifluoromethyl)-1H-benzo[d]imidazol-1-yl)methyl)nicotinonitrile]: the pIC50 was 8.36.

As for `N#Cc1ccc(Cn2c(N3CCC[C@H](N)C3)nc3ccc(F)cc32)nc1` [Example 45, (S)-6-((2-(3-aminopiperidin-1-yl)-6-fluoro-1H-benzo[d]imidazol-1-yl)methyl)nicotinonitrile hydrochloride], the pIC50 is 8.63.

In the case of `COc1ccc2nc(N3CCC[C@H](N)C3)n(Cc3ccc(C#N)cc3)c2c1` [Example 402, (S)-4-((2-(3-aminopiperidin-1-yl)-6-methoxy-1H-benzo[d]imidazol-1-yl)methyl)benzonitrile hydrochloride], the pIC50 was 8.88.

For the compound `N[C@@H]1CN(c2nc3cc(C(F)(F)F)ccc3n2CC(=O)N2CCOCC2)CC[C@H]1F` [Example 473, 2-(2-((3R,4R)-3-amino-4-fluoropiperidin-1-yl)-5-(trifluoromethyl)-1H-benzo[d]imidazol-1-yl)-1-morpholinoethan-1-one], the pIC50 was 6.40.

Turning to `C[C@H](c1ncc(Cl)cn1)n1c(N2CC[C@@H](F)[C@H](N)C2)nc2cc(F)c(F)cc21` [Example 498, (3R,4R)-1-(1-((R)-1-(5-chloropyrimidin-2-yl)ethyl)-5,6-difluoro-1H-benzo[d]imidazol-2-yl)-4-fluoropiperidin-3-amine], the pIC50 was 8.73.

Consider `N#Cc1ccc2nc(N3CC[C@@H](F)[C@H](N)C3)n(Cc3ncc(F)cn3)c2c1` [Example 196, 2-((3R,4R)-3-amino-4-fluoropiperidin-1-yl)-1-((5-fluoropyrimidin-2-yl)methyl)-1H-benzo[d]imidazole-6-carbonitrile], for which the pIC50 is 8.19.

`N[C@@H]1CN(c2nc3cc(F)cnc3n2Cc2ncc(Cl)cn2)CC[C@H]1F` [Example 583]: the pIC50 is 6.38.

For `N[C@H]1CCCN(c2nc3ccccc3n2Cc2ccc(Cl)cn2)C1` [Example 209, (S)-1-(1-((5-chloropyridin-2-yl)methyl)-1H-benzo[d]imidazol-2-yl)piperidin-3-amine], the pIC50 is 8.41.
